From PMC5312968, “Structure, kinetic characterization and subcellular localization of the two ribulose 5-phosphate epimerase isoenzymes from Trypanosoma cruzi” (PLoS ONE, 2017)
Where “and” joins values, the source holds several entries; their conditions need not be identical. Equal entries are not always repeated.

Tests used:
[1] = biological target: T1, TcRPE1 (Trypanosoma cruzi, UniProt Q4DBL0); test: coupled enzyme assay (transketolase), spectrophotometric; type: biochemical; details: pH 7.25, 30°C, triethanolamine-HCl, 0.02–2 mM substrate; biphasic kinetics, authors give no constants
T1 construct: gene Tc00.1047053510257.30; full-length ORF of 735 bp, pET-22b(+), C-terminal His6 tag kept, E. coli BL21 codon Plus (DE3), subunit 27 kDa, monomer to octamer mixture
T1 sequence (Q4DBL0 1-244): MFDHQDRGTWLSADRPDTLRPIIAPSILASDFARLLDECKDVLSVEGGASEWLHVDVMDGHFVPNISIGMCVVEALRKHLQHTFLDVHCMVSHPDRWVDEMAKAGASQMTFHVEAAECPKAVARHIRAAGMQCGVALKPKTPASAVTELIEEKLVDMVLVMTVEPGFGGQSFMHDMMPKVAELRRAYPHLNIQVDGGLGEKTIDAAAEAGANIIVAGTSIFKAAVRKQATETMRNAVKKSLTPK

[2] = biological target: recombinant ribulose-5-phosphate epimerase 2 from Trypanosoma cruzi CL Brener clone (TcRPE2) (Trypanosoma cruzi CL Brener clone); test: SEC-MALS; Superose 12 column with in-line multi-angle static and dynamic light scattering (SEC-FPLC-LS), room temperature, 50 mM Tris-HCl pH 7.6, 500 mM NaCl, 0.4 ml/min; mixture of oligomeric species of one protein

Row | stoichiometry N [2] | Compound | coupled enzyme assay (transketolase), spectrophotometric [1]
1 |  | O=C(CO)[C@H](O)[C@H](O)COP(=O)(O)O [D-ribulose-5-phosphate] | TcRPE1 showed a very complex kinetic pattern to increasing concentrations of Ru5P
2 | 2 and 4 | recombinant ribulose-5-phosphate epimerase 2 from Trypanosoma cruzi CL Brener clone (TcRPE2) (enzyme) | 
